# Target: T1, full length active recombinant SYK enzyme (Homo sapiens, UniProt P43405)
# T1 construct: full length active recombinant SYK enzyme (Millipore, Calif.); purchased Millipore
# Assay: Inhibition of Syk tyrosine phosphorylation activity (LANCE TR-FRET kinase assay)
# Format: biochemical
# Conditions: activity in the Syk assays, class symbols
# In short: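 1 nM full-length active recombinant SYK phosphorylated 550 nM biotin-DEEDYESP-OH with 100 μM ATP in 50 mM Tris pH 7.5, 5 mM MgCl2, 1 mM DTT and 3% DMSO for 1 h at room temperature. After EDTA quench, Eu-anti-phosphotyrosine/SA-APC TR-FRET was read after 1 h. IC50s came from non-linear regression.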
row,Structure (SMILES),IC50 [nM]
1,"CCOc1ccc(Nc2nc(N[C@@H]3CCCC[C@@H]3N)cnc2C(N)=O)cn1 [Example 308, 5-((1R,2S)-2-aminocyclohexylamino)-3-(6-ethoxypyridin-3-ylamino)pyrazine-2-carboxamide]",1 to 10
2,"COc1cncc(Nc2nc(N[C@@H]3CCCC[C@@H]3N)cnc2C(N)=O)c1 [Example 309, 5-((1R,2S)-2-aminocyclohexylamino)-3-(5-methoxypyridin-3-ylamino)pyrazine-2-carboxamide]",1 to 10
3,"CC[C@@H](Nc1cnc(C(N)=O)c(Nc2ccc(N(C)C)nc2)n1)C(N)=O [Example 310, (R)-5-(1-amino-1-oxobutan-2-ylamino)-3-(6-(dimethylamino)pyridin-3-ylamino)pyrazine-2-carboxamide]",10 to 100
4,"CC[C@@H](Nc1cnc(C(N)=O)c(Nc2cnc(OC)c(C)c2)n1)C(N)=O [Example 311, (R)-5-(1-amino-1-oxobutan-2-ylamino)-3-(6-methoxy-5-methylpyridin-3-ylamino)pyrazine-2-carboxamide]",10 to 100
5,"COc1ccc(Nc2nc(N[C@H](CC(C)C)C(N)=O)cnc2C(N)=O)cn1 [Example 312, (R)-5-(1-amino-4-methyl-1-oxopentan-2-ylamino)-3-(6-methoxypyridin-3-ylamino)pyrazine-2-carboxamide]",1 to 10
6,"CC(C)C[C@@H](Nc1cnc(C(N)=O)c(Nc2ccc(N(C)C)nc2)n1)C(N)=O [Example 313, (R)-5-(1-amino-4-methyl-1-oxopentan-2-ylamino)-3-(6-(dimethylamino)pyridin-3-ylamino)pyrazine-2-carboxamide]",10 to 100
7,"CC[C@@H](Nc1cnc(C(N)=O)c(Nc2cnc(N(C)C)c(C)c2)n1)C(N)=O [Example 314, (R)-5-(1-amino-1-oxobutan-2-ylamino)-3-(6-(dimethylamino)-5-methylpyridin-3-ylamino)pyrazine-2-carboxamide]",100 to 1000
8,"COc1cc(Nc2nc(N[C@@H](C(N)=O)C(C)C)cnc2C(N)=O)ccn1 [Example 315, (R)-5-(1-amino-3-methyl-1-oxobutan-2-ylamino)-3-(2-methoxypyridin-4-ylamino)pyrazine-2-carboxamide]",10 to 100
9,"CC[C@@H](Nc1cnc(C(N)=O)c(Nc2ccc(OCC(F)(F)F)nc2)n1)C(N)=O [Example 316, (R)-5-(1-amino-1-oxobutan-2-ylamino)-3-(6-(2,2,2-trifluoroethoxy)pyridin-3-ylamino)pyrazine-2-carboxamide]",10 to 100
10,"CC[C@@H](Nc1cnc(C(N)=O)c(Nc2ccc(OC)nc2)n1)C(N)=O [Example 317, (R)-5-(1-amino-1-oxobutan-2-ylamino)-3-(6-methoxypyridin-3-ylamino)pyrazine-2-carboxamide]",10 to 100
11,"CC[C@@H](Nc1cnc(C(N)=O)c(Nc2ccc3nc(N(C)C)oc3c2)n1)C(N)=O [Example 318, (R)-5-(1-amino-1-oxobutan-2-ylamino)-3-(2-(dimethylamino)benzo[d]oxazol-6-ylamino)pyrazine-2-carboxamide]",10 to 100
12,"CC[C@@H](Nc1cnc(C(N)=O)c(Nc2ccc(N3CCC3)nc2)n1)C(N)=O [Example 319, (R)-5-(1-amino-1-oxobutan-2-ylamino)-3-(6-(azetidin-1-yl)pyridin-3-ylamino)pyrazine-2-carboxamide]",10 to 100
13,"CC[C@@H](Nc1cnc(C(N)=O)c(Nc2cc(C)ccn2)n1)C(N)=O [Example 320, (R)-5-(1-amino-1-oxobutan-2-ylamino)-3-(4-methylpyridin-2-ylamino)pyrazine-2-carboxamide]",> 1000
14,"CC(C)C[C@@H](Nc1cnc(C(N)=O)c(Nc2ccc(C(=O)N3CC(C#N)C3)nc2)n1)C(N)=O [Example 321, (R)-5-(1-amino-4-methyl-1-oxopentan-2-ylamino)-3-(6-(3-cyanoazetidine-1-carbonyl)pyridin-3-ylamino)pyrazine-2-carboxamide]",1 to 10
15,"CC[C@@H](Nc1cnc(C(N)=O)c(Nc2cncc(OC)c2)n1)C(N)=O [Example 322, (R)-5-(1-amino-1-oxobutan-2-ylamino)-3-(5-methoxypyridin-3-ylamino)pyrazine-2-carboxamide]",100 to 1000
16,"COc1cncc(Nc2nc(N[C@H](CC(C)C)C(N)=O)cnc2C(N)=O)c1 [Example 323, (R)-5-(1-amino-4-methyl-1-oxopentan-2-ylamino)-3-(5-methoxypyridin-3-ylamino)pyrazine-2-carboxamide]",1 to 10
17,"CN1C(=O)Cc2cc(Nc3nc(N[C@@H]4CCCC[C@@H]4N)cnc3C(N)=O)ccc21 [Example 324, 5-((1R,2S)-2-aminocyclohexylamino)-3-(1-methyl-2-oxoindolin-5-ylamino)pyrazine-2-carboxamide]",1 to 10
18,"CN(C)c1nc2ccc(Nc3nc(N[C@@H]4CCCC[C@@H]4N)cnc3C(N)=O)cc2o1 [Example 325, 5-((1R,2S)-2-aminocyclohexylamino)-3-(2-(dimethylamino)benzo[d]oxazol-6-ylamino)pyrazine-2-carboxamide]",1 to 10

row,Structure (SMILES),IC50 [nM]
1,"COc1ccc(Nc2nc(N[C@@H](C(N)=O)C(C)C)cnc2C(N)=O)cn1 [Example 326, (R)-5-(1-amino-3-methyl-1-oxobutan-2-ylamino)-3-(6-methoxypyridin-3-ylamino)pyrazine-2-carboxamide]",10 to 100
2,"CC(C)[C@@H](Nc1cnc(C(N)=O)c(Nc2ccc(OCC(F)(F)F)nc2)n1)C(N)=O [Example 327, (R)-5-(1-amino-3-methyl-1-oxobutan-2-ylamino)-3-(6-(2,2,2-trifluoroethoxy)pyridin-3-ylamino)pyrazine-2-carboxamide]",100 to 1000
3,"Cc1cc(Nc2nc(N[C@@H]3CCCC[C@@H]3N)cnc2C(N)=O)sn1 [Example 328, 5-((1R,2S)-2-aminocyclohexylamino)-3-(3-methylisothiazol-5-ylamino)pyrazine-2-carboxamide]",< 1
4,"CC[C@@H](Nc1cnc(C(N)=O)c(Nc2ccc(C(=O)N3CC(C#N)C3)nc2)n1)C(N)=O [Example 329, (R)-5-(1-amino-1-oxobutan-2-ylamino)-3-(6-(3-cyanoazetidine-1-carbonyl)pyridin-3-ylamino)pyrazine-2-carboxamide]",1 to 10
5,"COc1ccc(Nc2nc(N[C@@H]3CCCC(F)(F)[C@@H]3N)cnc2C(N)=O)cn1 [Example 330, 5-((1R,2R)-2-amino-3,3-difluorocyclohexylamino)-3-(6-methoxypyridin-3-ylamino)pyrazine-2-carboxamide]",100 to 1000
6,"COc1cc(Nc2nc(N[C@@H]3CCCC(F)(F)[C@@H]3N)cnc2C(N)=O)ccn1 [Example 331, 5-((1R,2R)-2-amino-3,3-difluorocyclohexylamino)-3-(2-methoxypyridin-4-ylamino)pyrazine-2-carboxamide]",10 to 100
7,"COc1ncc(Nc2nc(N[C@@H]3CCCC(F)(F)[C@@H]3N)cnc2C(N)=O)cc1C [Example 332, 5-((1R,2R)-2-amino-3,3-difluorocyclohexylamino)-3-(6-methoxy-5-methylpyridin-3-ylamino)pyrazine-2-carboxamide]",10 to 100
8,"COc1cncc(Nc2nc(N[C@@H]3CCCC(F)(F)[C@@H]3N)cnc2C(N)=O)c1 [Example 333, 5-((1R,2R)-2-amino-3,3-difluorocyclohexylamino)-3-(5-methoxypyridin-3-ylamino)pyrazine-2-carboxamide]",100 to 1000
9,"CC(C)C[C@@H](Nc1cnc(C(N)=O)c(Nc2ccc(N3CCC3)nc2)n1)C(N)=O [Example 334, (R)-5-(1-amino-4-methyl-1-oxopentan-2-ylamino)-3-(6-(azetidin-1-yl)pyridin-3-ylamino)pyrazine-2-carboxamide]",10 to 100
10,"CC(C)C[C@@H](Nc1cnc(C(N)=O)c(Nc2ccnc(N(C)C)c2)n1)C(N)=O [Example 335, (R)-5-(1-amino-4-methyl-1-oxopentan-2-ylamino)-3-(2-(dimethylamino)pyridin-4-ylamino)pyrazine-2-carboxamide]",1 to 10
11,"CN(C)c1nc2ccc(Nc3nc(N[C@@H]4CCCC(F)(F)[C@@H]4N)cnc3C(N)=O)cc2o1 [Example 336, 5-((1R,2R)-2-amino-3,3-difluorocyclohexylamino)-3-(2-(dimethylamino)benzo[d]oxazol-6-ylamino)pyrazine-2-carboxamide]",1 to 10
12,"NC(=O)c1ncc(N[C@@H]2CCCC(F)(F)[C@@H]2N)nc1Nc1ccc2nc(N3CCC3)oc2c1 [Example 337, 5-((1R,2R)-2-amino-3,3-difluorocyclohexylamino)-3-(2-(azetidin-1-yl)benzo[d]oxazol-6-ylamino)pyrazine-2-carboxamide]",10 to 100
13,"N#Cc1ccc(Nc2nc(N[C@@H]3CCCC[C@@H]3N)cnc2C(N)=O)cn1 [Example 338, 5-((1R,2S)-2-aminocyclohexylamino)-3-(6-cyanopyridin-3-ylamino)pyrazine-2-carboxamide]",10 to 100
14,"CN1Cc2cc(Nc3nc(N[C@@H]4CCCC[C@@H]4N)cnc3C(N)=O)ccc2C1=O [Example 339, 5-((1R,2S)-2-aminocyclohexylamino)-3-(2-methyl-1-oxoisoindolin-5-ylamino)pyrazine-2-carboxamide]",< 1
15,"CCc1ccc(Nc2nc(N[C@H](CC)C(N)=O)cnc2C(N)=O)cn1 [Example 340, (R)-5-(1-amino-1-oxobutan-2-ylamino)-3-(6-ethylpyridin-3-ylamino)pyrazine-2-carboxamide]",10 to 100
16,"CC[C@@H](Nc1cnc(C(N)=O)c(Nc2ccc(C3CC3)nc2)n1)C(N)=O [Example 341, (R)-5-(1-amino-1-oxobutan-2-ylamino)-3-(6-cyclopropylpyridin-3-ylamino)pyrazine-2-carboxamide]",10 to 100
17,"CC[C@@H](Nc1cnc(C(N)=O)c(Nc2ccnc(C3CC3)c2)n1)C(N)=O [Example 342, (R)-5-(1-amino-1-oxobutan-2-ylamino)-3-(2-cyclopropylpyridin-4-ylamino)pyrazine-2-carboxamide]",< 1

# — patent US9359308B2, “Pyrazine kinase inhibitors” (Portola Pharmaceuticals, Inc., priority 2011, dated 2016)
